The target in assay [1] is T1, PDK1 kinase (Homo sapiens, UniProt O15530).
T1 sequence (O15530 1-556): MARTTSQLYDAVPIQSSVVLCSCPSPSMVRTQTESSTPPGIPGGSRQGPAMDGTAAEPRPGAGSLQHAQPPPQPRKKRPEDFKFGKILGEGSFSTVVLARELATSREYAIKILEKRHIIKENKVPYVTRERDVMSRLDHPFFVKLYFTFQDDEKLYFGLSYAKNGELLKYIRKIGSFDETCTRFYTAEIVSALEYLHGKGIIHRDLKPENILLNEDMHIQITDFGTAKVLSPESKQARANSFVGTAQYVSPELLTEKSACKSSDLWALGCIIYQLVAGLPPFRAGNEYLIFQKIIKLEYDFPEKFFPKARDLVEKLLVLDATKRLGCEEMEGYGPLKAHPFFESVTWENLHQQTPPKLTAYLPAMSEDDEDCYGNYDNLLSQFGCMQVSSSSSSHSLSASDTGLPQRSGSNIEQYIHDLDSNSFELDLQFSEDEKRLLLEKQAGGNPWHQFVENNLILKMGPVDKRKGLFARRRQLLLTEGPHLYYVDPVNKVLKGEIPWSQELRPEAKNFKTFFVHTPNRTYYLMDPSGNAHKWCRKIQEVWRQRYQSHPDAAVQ
Put plainly: PDK1 Kinase Alpha Screen Assay. The format is biochemical. The conditions noted are these: PDK1 Kinase Alpha Screen Assay; read-out: PDK1 IC50. A digest of the protocol:
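Compound in DMSO added to PDK1-4 peptide; PDK1/ATP mix starts reaction (final 50 nM peptide, 10 uM ATP). Runs 3-18 hours, stopped with 90 mM EDTA buffer. Antibody/bead mix added, developed overnight at room temperature, then AlphaScreen signal read.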

The test system of assay [2] is PC-3 cells. Put plainly: Cell Proliferation Assay (Cell Titer Glo), PC-3 cell line. The format is cell-based. Conditions: Homo sapiens, PC-3, Cell Proliferation Assay, read-out: CPEC50 PC3. A digest of the protocol:
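PC-3 cells, 1000 cells/well, left to adhere 3-5 h, then exposed for 3 days at 37° C to compounds as 1:3 serial dilutions from 500× DMSO stocks diluted in growth medium. Medium then replaced with fresh medium and viability read by Cell Titer Glo luminescence.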
(In general: ATP-based viability assays read luminescence as a measure of living cells.)

From US7932262B2 (Novartis AG, priority 2006, dated 2011) come the findings set out here.

Read-outs that look alike come from different tables or passages of the source. A value given as a limit tells only on which side of the number the result lay.

`C#Cc1cc(OC2CN3CCC2CC3)c2nc(Nc3ccc(S(N)(=O)=O)cc3)ncc2c1` (stereo not shown) [Compound 635, 4-(6-ethynyl-8-(quinuclidin-3-yloxy)quinazolin-2-ylamino)benzenesulfonamide]: the IC50 in assay [1] was < 5 µM. The EC50 in assay [2] (PC3) was < 5 µM.

With `C#Cc1cc2cnc(Nc3ccc(C(=O)NC(C)C)cc3)nc2cc1OC1CCN(C(C)C)CC1` [Compound 636, 4-(6-ethynyl-7-(1-isopropylpiperidin-4-yloxy)quinazolin-2-ylamino)-N-isopropylbenzamide], the half-inhibitory concentration (IC50) in assay [1] is < 5 µM. The EC50 in assay [2] (PC3) was < 5 µM.

`CC(C)NC(=O)c1ccc(Nc2ncc3cc(C4CC4)c(OC4CCN(C(C)C)CC4)cc3n2)cc1` [Compound 637, 4-(6-cyclopropyl-7-(1-isoproylpiperidin-4-yloxy)quinazolin-2-ylamino)-N-isopropylbenzamide]: in assay [1], the IC50 is < 5 µM. Besides, the EC50 in assay [2] (PC3) was < 5 µM.

On to `CC(C)NC(=O)c1ccc(Nc2ncc3cc(-c4nccs4)c(OC4CCN(C(C)C)CC4)cc3n2)cc1` [Compound 638, N-isopropyl-4-(7-(1-isoproylpiperidin-4-yloxy)-6-(thiazol-2-yl)quinazolin-2-ylamino)benzamide], for which the IC50 in assay [1] is < 5 µM. Besides, the EC50 in assay [2] (PC3) is < 5 µM.

Consider `CC(C)NC(=O)c1ccc(Nc2ncc3cc(C#N)c(OC4CCN(C(C)C)CC4)cc3n2)cc1` [Compound 639], for which the concentration for half-maximal inhibition (IC50) in assay [1] was < 5 µM. In addition, the EC50 in assay [2] (PC3) is < 5 µM.

As to `N#Cc1cc2cnc(Nc3ccc(C(=O)N4CCOCC4)cc3)nc2cc1OC1CCNCC1` [Compound 640, 2-(4-(morpholine-4-carbonyl)phenylamino)-7-(piperidin-4-yloxy)quinazoline-6-carbonitrile], the half-inhibitory concentration (IC50) in assay [1] is < 5 µM. Moreover, in assay [2] (PC3), the EC50 is < 5 µM.

Consider `C#Cc1cc2cnc(Nc3ccc(C(=O)N4CCOCC4)cc3)nc2cc1OC1CCNCC1` [Compound 641], for which, in assay [1], the IC50 is < 5 µM. For the same compound, the EC50 in assay [2] (PC3) was < 5 µM.

In the case of `O=C(c1ccc(Nc2ncc3cc(C4CC4)c(OC4CCNCC4)cc3n2)cc1)N1CCOCC1` [Compound 642, (4-(6-cyclopropyl-7-(piperidin-4-yloxy)quinazolin-2-ylamino)phenyl)(morpholino)methanone], the IC50 in assay [1] was < 5 µM. Also, the EC50 in assay [2] (PC3) was < 5 µM.

As to `c1cc(N2CCOCC2)ccc1Nc1ncc2cc(C3CC3)c(OC3CCNCC3)cc2n1` [Compound 643, 6-cyclopropyl-N-(4-morpholinophenyl)-7-(piperidin-4-yloxy)quinazolin-2-amine], the IC50 in assay [1] was < 5 µM. For the same compound, the EC50 in assay [2] (PC3) is < 5 µM.

`N#Cc1cc2cnc(Nc3ccc(N4CCOCC4)cc3)nc2cc1OC1CCNCC1` [Compound 644, 2-(4-morpholinophenylamino)-7-(piperidin-4-yloxy)quinazoline-6-carbonitrile]: the IC50 in assay [1] was < 5 µM. Further, the EC50 in assay [2] (PC3) is < 5 µM.

For the compound `Brc1cc2cnc(Nc3ccc(N4CCOCC4)cc3)nc2cc1OC1CCNCC1` [Compound 650, 6-bromo-N-(4-morpholinophenyl)-7-(piperidin-4-yloxy)quinazolin-2-amine], in assay [1], the IC50 was < 5 µM. The EC50 in assay [2] (PC3) is < 5 µM.

Regarding `COc1ccc(Cl)c2cnc(Nc3cc(CN(C)C)cc(NC(C)=O)c3)nc12` [Compound 691], in assay [1], the IC50 is < 5 µM. In assay [2] (PC3), the EC50 fell in the range of 5 to 10 µM.

As for `O=C(c1ccc(Nc2ncc3c(Cl)ccc(OC4CCNCC4)c3n2)cc1Cl)N1CCOCC1` [Compound 692, (2-chloro-4-(5-chloro-8-(piperidin-4-yloxy)quinazolin-2-ylamino)phenyl) (morpholino)methanone], the half-maximal inhibitory concentration (IC50) in assay [1] was < 5 µM. In assay [2] (PC3), the EC50 was < 5 µM.

Take `O=C(c1ccc(Nc2ncc3c(Cl)ccc(NC4CCNCC4)c3n2)cc1)N1CCOCC1` [Compound 693, (4-(5-chloro-8-(piperidin-4-ylamino)quinazolin-2-ylamino)phenyl)(morpholino)methanone]: the half-inhibitory concentration (IC50) in assay [1] was < 5 µM. For the same compound, in assay [2] (PC3), the EC50 was < 5 µM.

`NC1CCN(c2ccc(Cl)c3cnc(Nc4ccc(C(=O)N5CCOCC5)cc4)nc23)CC1` [Compound 694, (4-(8-(4-aminopiperidin-1-yl)-5-chloroquinazolin-2-ylamino)phenyl)(morpholino)methanone]: the IC50 in assay [1] was < 5 µM. In assay [2] (PC3), the EC50 was < 5 µM.

On to `CC(C)N1CCC(Nc2ccc(Cl)c3cnc(Nc4ccc(C(=O)N5CCOCC5)cc4)nc23)CC1` [Compound 695, (4-(5-chloro-8-(1-isopropylpiperidin-4-ylamino)quinazolin-2-ylamino)phenyl)(morpholino)methanone], for which the IC50 in assay [1] is < 5 µM. Besides, in assay [2] (PC3), the EC50 lay within 5 to 10 µM.

`C#Cc1cc(OC2CCN(C(C)C)CC2)c2nc(Nc3cccc(N4CCOCC4)c3)ncc2c1` [Compound 697, 6-ethynyl-8-(1-isopropylpiperidin-4-yloxy)-N-(3-morpholinophenyl)quinazolin-2-amine]: the half-maximal inhibitory concentration (IC50) in assay [1] is < 5 µM. In addition, in assay [2] (PC3), the EC50 is < 5 µM.

With `C#Cc1cc(OC2CCN(C(C)C)CC2)c2nc(Nc3ccc(N4CCOCC4)cc3)ncc2c1` [Compound 698, 6-ethynyl-8-(1-isopropylpiperidin-4-yloxy)-N-(4-morpholinophenyl)quinazolin-2-amine], the half-maximal inhibitory concentration (IC50) in assay [1] is < 5 µM. Besides, the EC50 in assay [2] (PC3) is < 5 µM.

On to `CC(C)N1CCC(Oc2cc(C#N)cc3cnc(Nc4ccc(N5CCOCC5)cc4)nc23)CC1` [Compound 699, 8-(1-isopropylpiperidin-4-yloxy)-2-(4-morpholinophenylamino)quinazoline-6-carbonitrile], for which the IC50 in assay [1] is < 5 µM. Besides, the EC50 in assay [2] (PC3) is < 5 µM.

As to `C#Cc1cc(OC2CCNCC2)c2nc(Nc3ccc(N4CCOCC4)cc3)ncc2c1` [Compound 700, 6-ethynyl-N-(4-morpholinophenyl)-8-(piperidin-4-yloxy)quinazolin-2-amine], the IC50 in assay [1] is < 5 µM. The EC50 in assay [2] (PC3) was < 5 µM.

Take `N#Cc1cc(OC2CCNCC2)c2nc(Nc3ccc(N4CCOCC4)cc3)ncc2c1` [Compound 701, 2-(4-morpholinophenylamino)-8-(piperidin-4-yloxy)quinazoline-6-carbonitrile]: the IC50 in assay [1] is < 5 µM. For the same compound, the EC50 in assay [2] (PC3) was < 5 µM.

In the case of `c1csc(-c2cc(OC3CCNCC3)c3nc(Nc4ccc(N5CCOCC5)cc4)ncc3c2)n1` [Compound 702, N-(4-morpholinophenyl)-8-(piperidin-4-yloxy)-6-(thiazol-2-yl)quinazolin-2-amine], the IC50 in assay [1] was < 5 µM. Also, the EC50 in assay [2] (PC3) was < 5 µM.

Turning to `c1cc(N2CCOCC2)ccc1Nc1ncc2cc(C3CC3)cc(OC3CCNCC3)c2n1` [Compound 703, 6-cyclopropyl-N-(4-mropholinophenyl)-8-(piperidin-4-yloxy)quinazolin-2-amine], the half-inhibitory concentration (IC50) in assay [1] is < 5 µM. In addition, in assay [2] (PC3), the EC50 is < 5 µM.

For `CC(C)N1CCC(Oc2cc(C3CC3)cc3cnc(Nc4ccc(N5CCOCC5)cc4)nc23)CC1` [Compound 704, 6-cyclopropyl-8-(1-isopropylpiperidin-4-yloxy)-N-(4-morpholinophenyl)quinazolin-2-amine], the IC50 in assay [1] was < 5 µM. In addition, the EC50 in assay [2] (PC3) was < 5 µM.

Take `C#Cc1cc(OC2CCNCC2)c2nc(Nc3ccc(C(=O)N4CCOCC4)cc3)ncc2c1` [Compound 705, (4-(6-ethynyl-8-(piperidin-4-yloxy)quinazolin-2-ylamino)phenyl)(morpholino)methanone]: the half-maximal inhibitory concentration (IC50) in assay [1] is < 5 µM. Further, the EC50 in assay [2] (PC3) was < 5 µM.

For `c1csc(-c2cc(OC3CNC3)c3nc(Nc4ccc(N5CCOCC5)cc4)ncc3c2)n1` [Compound 706, 8-(azetidin-3-yloxy)-N-(4-morpholinophenyl)-6-(thiazol-2-yl)quinazolin-2-amine], the IC50 in assay [1] is < 5 µM. For the same compound, in assay [2] (PC3), the EC50 is < 5 µM.

Consider `C#Cc1cc(OC2CNC2)c2nc(Nc3ccc(N4CCOCC4)cc3)ncc2c1` [Compound 707, 8-(azetidin-3-yloxy)-6-ethynyl-N-(4-morpholinophenyl)quinazolin-2-amine], for which the concentration for half-maximal inhibition (IC50) in assay [1] was < 5 µM. Further, the EC50 in assay [2] (PC3 cells) was < 5 µM.

`C#Cc1cc(OC2CCNCC2)c2nc(Nc3ccc(C(=O)N4CCOCC4)cc3)ncc2c1Cl` [Compound 708, (4-(5-chloro-6-ethynyl-8-(piperidin-4-yloxy)quinazolin-2-ylamino)phenyl)(morpholino)methanone]: the concentration for half-maximal inhibition (IC50) in assay [1] is < 5 µM. In assay [2] (PC3 cells), the EC50 was < 5 µM.

As to `CC(C)Cn1cc(-c2ccc3cnc(Nc4ccc(S(=O)(=O)NCCCN5CCCC5)cc4)nc3c2)cn1` [Compound 709, 4-(7-(1-isobutyl-1H-pyrazol-4-yl)quinazolin-2-ylamino)-N-(3-(pyrrolidin-1-yl)propyl)benzenesulfonamide], the IC50 in assay [1] is < 5 µM. Besides, in assay [2] (PC3 cells), the EC50 was < 5 µM.

What is called IC50 is the concentration that inhibits the measured activity by half.
